For the test, the system named is sphincter of Oddi muscle rings. The test can be described thus: Biliary sphincter of Oddi muscle rings with cholecystokinin octapeptide and BGP-15 (isometric tension, organ bath). Conditions: BGP-15 20 mg/kg daily for 5 days, CCK-8 5 × 10^−7 M, combination: BGP-15 pretreatment 5 days then CCK-8, average of 6.

Description: The sphincter of Oddi was removed from adult male New Zealand white rabbits weighing 3.5-4 kg, and muscle ring of about 3 mm width were prepared. […] The organ bath was maintained at 37° C. and aerated continuously with carbogen (5% of carbon dioxide in oxygen according to European Pharmacopoeia, Edition III). The initial tension was set to 10 mN and the rings were allowed to equilibrate over 1 hour.
In case of each test type, 6 parallel experiments were carried out, and the average of the results obtained was determined. The following test types were made:
treatment with cholecystokinin octapeptide to simulate the effect existing in the living organism,
treatment with organ bath (control group).
In the treatment with cholecystokinin octapeptide, 5×10^-7 M of the polypeptide was employed.

Consider Cholecystokinin octapeptide [CCK-8], for which the Max. relaxation (control 0) was found to be 5 mN. Moreover, under “control 10”, the Max. tonic contraction is reported as 24 mN. For the setting “control 13”, the Frequency of contraction is reported as 19 c/min. Moreover, the Max. contraction (control 16) was 29 mN.

For the origin of these results see US7767694B2, “Pharmaceutical composition having prokinetic effect” (N-Gene Research Laboratories Inc., priority 2004, dated 2010).
